# Experimental data taken from patent publication US7803930B2, “Antisense modulation of apolipoprotein B-expression” (Isis Pharmaceuticals, Inc., priority 2002, dated 2010).
# In the oligonucleotide strings, read from the 5' end, every base follows the letter of its sugar. An asterisk marks phosphorothioate; unmarked linkages are phosphodiester. Other units and linkages are bracketed, terminal groups are in braces. A string of capitals states the bases alone. e = 2'-O-(2-methoxyethyl) (MOE); [5mC] = 5-methylcytosine; d = 2'-deoxy (DNA)
# Test system: human apolipoprotein B mRNA
# Assay: Inhibition of human apolipoprotein B mRNA levels in HepG2 cells, quantitative real-time PCR
# Assay type: cell-based
# Conditions: for % INHIB 50 nm / % INHIB 150 nm / % INHIB: HepG2 cells; for % INHIB (inhibition of human apolipoprotein B mRNA levels): HepG2 cells treated with 150 nM of compound, quantitative real-time PCR
# Summary of the method: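 HepG2 cells at 80% confluency were transfected with antisense oligonucleotide using 3.75 μg/mL Lipofectin in Opti-MEM for 4-7 h and harvested 16-24 h after treatment. Apolipoprotein B mRNA was measured by real-time RT-PCR and normalized to GAPDH or RiboGreen total RNA. Percent inhibition came from untreated-control standard curves.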
# [1] = human apolipoprotein B mRNA, oligonucleotides targeting genomic sequence SEQ ID NO 334, averages from two experiments
# [2] = 50 nm oligonucleotide, variable deoxy gap position
# [3] = 150 nm oligonucleotide, variable deoxy gap position
# [4] = Table 11 gene walk, 50 nM, averages from two experiments
# [5] = Table 11 gene walk, 150 nM, averages from two experiments
Substance,% INHIB [1] [%],% INHIB (inhibition of human apolipoprotein B mRNA levels) (averages from two experiments) [%],also measured
"308657 (antisense GCCTCAGTCTGCTTCGCGCC; 9-10-1 2'-MOE gapmer, phosphorothioate, chemistry not fully specified) [compound 308657]",–,–,"% INHIB 50 nm (Table 17 variable gap, 50 nM, averages from three experiments): 61%; % INHIB 150 nm (Table 17 variable gap, 150 nM, averages from three experiments): 78%"
301062 (e[5mC]*e[5mC]*eT*e[5mC]*eA*dG*d[5mC]*dG*dG*dA*d[5mC]*dA*d[5mC]*dA*d[5mC]*eA*e[5mC]*eA*e[5mC]*eA; antisense) [compound 301062],21,–,–
301066 (eG*eA*e[5mC]*e[5mC]*eT*d[5mC]*d[5mC]*d[5mC]*d[5mC]*dA*dG*d[5mC]*d[5mC]*dA*d[5mC]*eG*eT*eG*eG*eA; antisense) [compound 301066],61,–,–
301121 (antisense eT*eT*eA*eT*eG*dA*dT*dA*dG*d[5mC]*dT*dA*d[5mC]*dA*dG*eA*eA*eT*eA*eA) [compound 301121],29,–,–
301100 (antisense eT*eA*e[5mC]*eT*eG*dT*dG*dA*d[5mC]*d[5mC]*dT*dA*dT*dG*d[5mC]*e[5mC]*eA*eG*eG*eA) [compound 301100],55,–,–
270996 (antisense e[5mC]*e[5mC]*eT*e[5mC]*eT*d[5mC]*dA*dG*d[5mC]*dT*d[5mC]*dA*dG*dT*dA*eA*e[5mC]*e[5mC]*eA*eG) [compound 270996],–,0,–
"308655 (antisense AGGTTACCAGCCACATGCAG; 8-10-2 2'-MOE gapmer, phosphorothioate, chemistry not fully specified) [compound 308655]",–,–,% INHIB 50 nm [2]: 84%; % INHIB 150 nm [3]: 83%
301041 (eG*eA*eG*eT*eT*d[5mC]*dA*dG*dA*dG*dA*d[5mC]*d[5mC]*dT*dT*e[5mC]*e[5mC]*eG*eA*eG; antisense) [compound 301041],–,85,–
308627 (eT*e[5mC]*eA*eG*eT*d[5mC]*dT*dG*d[5mC]*dT*dT*d[5mC]*dG*d[5mC]*dG*e[5mC]*e[5mC]*eT*eT*e[5mC]; antisense) [compound 308627],–,–,"% INHIB 50 nm (Table 13 gene walk, 50 nM, averages from two experiments): 67%; % INHIB 150 nm (Table 13 gene walk, 150 nM, averages from two experiments): 89%"
147789 (antisense eG*eG*eA*eA*eG*dA*dG*dG*dT*dG*dT*dT*dG*d[5mC]*dT*e[5mC]*e[5mC]*eT*eT*eG) [compound 147789],–,–,"% INHIB (Table 1, 150 nM, averages from two experiments): 24%"
"308641 (GCCTCAGTCTGCTTCGCACC; 2-10-8 MOE gapmer, phosphorothioate, chemistry not fully specified) [compound 308641]",–,–,% INHIB 50 nm [2]: 77%; % INHIB 150 nm [3]: 89%
281610 (antisense e[5mC]*eA*eG*e[5mC]*eT*d[5mC]*dT*dA*dA*dT*d[5mC]*dT*dG*dG*dT*eG*eT*e[5mC]*e[5mC]*e[5mC]) [compound 281610],–,69,–
301208 (antisense eT*eG*eG*eT*eA*dT*dT*dT*dA*d[5mC]*d[5mC]*dT*dG*dA*dG*eG*eG*e[5mC]*eT*eG) [compound 301208],21,–,–
301098 (antisense eA*e[5mC]*eT*eA*eG*dA*dG*dG*dT*dA*dG*d[5mC]*d[5mC]*dA*dG*eA*eA*e[5mC]*eA*e[5mC]) [compound 301098],34,–,–
301016 (e[5mC]*e[5mC]*eT*e[5mC]*eA*dG*d[5mC]*dG*dG*d[5mC]*dA*dG*d[5mC]*dA*dA*e[5mC]*e[5mC]*eG*eA*eG; antisense) [compound 301016],–,62,–
"308649 (antisense AGGTTACCAGCCACATGCAG; 6-10-4 2'-MOE gapmer, phosphorothioate, chemistry not fully specified) [compound 308649]",–,–,% INHIB 50 nm [2]: 68%; % INHIB 150 nm [3]: 91%

Substance,% INHIB [1] [%],% INHIB (inhibition of human apolipoprotein B mRNA levels) (averages from two experiments) [%],also measured
301187 (antisense eG*e[5mC]*eT*e[5mC]*eT*d[5mC]*dT*d[5mC]*dT*dG*d[5mC]*d[5mC]*dA*d[5mC]*dT*e[5mC]*eT*eG*eA*eT) [compound 301187],47,–,–
301149 (eA*eG*e[5mC]*eA*eT*dA*dT*dT*dT*dT*dG*dA*dT*dG*dA*eG*e[5mC]*eT*eG*eA; antisense) [compound 301149],44,–,–
281588 (eT*e[5mC]*eT*eT*e[5mC]*dA*dG*dG*dA*dT*dG*dA*dA*dG*d[5mC]*eT*eG*e[5mC]*eA*eG; antisense) [compound 281588],–,80,–
308592 (antisense eT*e[5mC]*eG*e[5mC]*eA*d[5mC]*d[5mC]*dT*dT*d[5mC]*dT*dG*d[5mC]*dT*dT*eG*eA*eG*eT*eT) [compound 308592],–,–,% INHIB 50 nm [4]: 49%; % INHIB 150 nm [5]: 96%
301152 (e[5mC]*eT*eG*eG*eA*dT*dA*dA*d[5mC]*dT*d[5mC]*dA*dG*dA*d[5mC]*e[5mC]*eT*eT*eT*eG; antisense) [compound 301152],40,–,–
271028 (e[5mC]*eG*e[5mC]*eA*eG*dG*dT*d[5mC]*dA*dG*d[5mC]*d[5mC]*dT*dG*dA*e[5mC]*eT*eA*eG*eA; antisense) [compound 271028],–,98,–
301089 (antisense eG*eA*eA*eG*eG*dT*d[5mC]*d[5mC]*dA*dT*dG*dG*dT*dT*d[5mC]*eA*eT*e[5mC]*eT*eG) [compound 301089],0,–,–
301140 (eG*e[5mC]*eA*eT*eA*d[5mC]*dA*dA*dG*dT*d[5mC]*dA*d[5mC]*dA*dT*eG*eA*eG*eG*eT; antisense) [compound 301140],34,–,–
301215 (antisense eT*eA*eT*eA*eG*dT*dA*d[5mC]*dA*d[5mC]*dT*dA*dA*dA*dA*e[5mC]*eT*eT*e[5mC]*eA) [compound 301215],1,–,–
281633 (antisense eG*eA*eT*eT*e[5mC]*dT*dG*dA*dT*dT*dT*dG*dG*dT*dA*e[5mC]*eT*eT*eA*eG) [compound 281633],–,73,–
281615 (antisense eT*eA*eG*eA*eT*d[5mC]*dT*d[5mC]*dT*dG*dG*dA*dG*dG*dA*eT*eT*eT*eG*e[5mC]) [compound 281615],–,81,–
308609 (e[5mC]*eA*eG*e[5mC]*e[5mC]*dA*d[5mC]*dA*dT*dG*d[5mC]*dA*dG*d[5mC]*dT*eT*e[5mC]*eA*eG*eG; antisense) [compound 308609],–,–,% INHIB 50 nm [4]: 78%; % INHIB 150 nm [5]: 96%
281612 (antisense e[5mC]*eA*eA*eG*eG*dT*d[5mC]*dA*dT*dA*d[5mC]*dT*d[5mC]*dT*dG*e[5mC]*e[5mC]*eG*eA*eT) [compound 281612],–,83,–
308594 (antisense eT*eG*e[5mC]*eT*eT*d[5mC]*dG*d[5mC]*dA*d[5mC]*d[5mC]*dT*dT*d[5mC]*dT*eG*e[5mC]*eT*eT*eG) [compound 308594],–,–,% INHIB 50 nm [4]: 57%; % INHIB 150 nm [5]: 88%
281598 (eT*e[5mC]*eG*e[5mC]*eA*dG*d[5mC]*dT*dG*d[5mC]*dT*dG*dT*dG*d[5mC]*eT*eG*eA*eG*eG; antisense) [compound 281598],–,70,–
